# Laboratory results published in patent US12509454B2, “Thiadiazolyl derivatives” (IDEAYA Biosciences, Inc., priority 2019, dated 2025).
# Biological target: Pol theta (1-899) (Homo sapiens (Human), UniProt O75417)
# Assay: Pol theta ATPase activity, NADH oxidation-coupled enzymatic assay
# Assay type: biochemical
# Details: Pol theta (1-899) 10 nM, ATP, dT50 ssDNA, absorbance 340 nm, 10-point dilution series; read-out: ATPase NADH coupling:Standard Screening:hPolQ IC50
# Method in brief: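 Pol theta (1-899), 10 nM, preincubated 15 min at RT with 10-point compound series in Tris pH 7.80/KCl/MgCl2 buffer, then given 100 μM ATP plus 300 nM dT50 ssDNA with PK/LDH-coupled NADH oxidation. A340 followed for 30 min; rate slopes fitted with a four-parameter model for IC50.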
# Pol theta (1-899), sequence (O75417 1-899): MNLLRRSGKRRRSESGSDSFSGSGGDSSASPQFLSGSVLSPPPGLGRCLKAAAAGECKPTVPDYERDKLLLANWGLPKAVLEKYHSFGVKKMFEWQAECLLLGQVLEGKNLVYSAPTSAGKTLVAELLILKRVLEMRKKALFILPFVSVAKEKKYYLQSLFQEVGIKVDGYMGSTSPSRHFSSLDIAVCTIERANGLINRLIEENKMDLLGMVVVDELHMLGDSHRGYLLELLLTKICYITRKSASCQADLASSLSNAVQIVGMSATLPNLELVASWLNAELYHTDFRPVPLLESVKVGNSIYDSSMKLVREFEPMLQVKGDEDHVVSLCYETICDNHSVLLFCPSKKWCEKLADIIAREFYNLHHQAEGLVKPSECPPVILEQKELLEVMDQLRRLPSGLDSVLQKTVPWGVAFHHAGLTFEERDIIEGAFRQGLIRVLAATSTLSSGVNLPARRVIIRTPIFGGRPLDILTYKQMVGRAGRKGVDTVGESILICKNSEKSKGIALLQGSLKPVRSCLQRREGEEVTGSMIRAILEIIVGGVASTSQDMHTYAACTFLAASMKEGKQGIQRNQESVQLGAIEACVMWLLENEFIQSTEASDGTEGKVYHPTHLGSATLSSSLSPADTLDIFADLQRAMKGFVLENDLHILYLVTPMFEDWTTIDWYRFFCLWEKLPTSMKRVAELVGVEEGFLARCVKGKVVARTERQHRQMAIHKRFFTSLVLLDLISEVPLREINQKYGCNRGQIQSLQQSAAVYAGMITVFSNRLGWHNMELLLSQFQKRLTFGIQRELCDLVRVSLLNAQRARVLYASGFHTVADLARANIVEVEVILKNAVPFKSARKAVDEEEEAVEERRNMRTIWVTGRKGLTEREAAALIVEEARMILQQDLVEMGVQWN
row,IC50 [nM],SMILES
1,≤ 200,"COc1ccccc1-c1cc(C)ncc1C(=O)Nc1nnc(OCc2ccc(F)cn2)s1 [Example 221, N-[5-[(5-fluoropyridin-2-yl)methoxy]-1,3,4-thiadiazol-2-yl]-4-(2-methoxyphenyl)-6-methylpyridine-3-carboxamide]"
2,≤ 200,"COc1ccccc1-c1cc(C)ncc1C(=O)Nc1nnc(OCc2ccc(C)cn2)s1 [Example 205, 4-(2-methoxyphenyl)-6-methyl-N-(5-((5-methylpyridin-2-yl)methoxy)-1,3,4-thiadiazol-2-yl)nicotinamide]"
3,≤ 200,"COc1cccc(F)c1-c1cc(C)ncc1C(=O)Nc1nnc(OCc2ccc(Cl)cn2)s1 [Example 184, N-(5-((5-chloropyridin-2-yl)methoxy)-1,3,4-thiadiazol-2-yl)-4-(2-fluoro-6-methoxyphenyl)-6-methylnicotinamide]"
4,≤ 200,"CN1CCOc2c(-c3cnccc3C(=O)Nc3nnc(OCc4ccc(Cl)cc4)s3)cccc21 [Example 139, N-[5-[(4-chlorophenyl)methoxy]-1,3,4-thiadiazol-2-yl]-3-(4-methyl-2,3-dihydro-1,4-benzoxazin-8-yl)pyridine-4-carboxamide]"
5,≤ 200,"O=C(Nc1nnc(OCc2ccc(Cl)cn2)s1)c1ccncc1-c1c(F)cccc1OC(F)F [Example 182, N-(5-((5-chloropyridin-2-yl)methoxy)-1,3,4-thiadiazol-2-yl)-3-(2-(difluoromethoxy)-6-fluorophenyl)isonicotinamide]"
6,≤ 200,"O=C(Nc1nnc(OCc2ccc(Cl)cc2)s1)c1ccncc1N1CCCn2nccc21 [Example 142, N-[5-[(4-chlorophenyl)methoxy]-1,3,4-thiadiazol-2-yl]-3-[5H,6H,7H-pyrazolo[1,5-a]pyrimidin-4-yl]pyridine-4-carboxamide]"
7,≤ 200,"COc1ccccc1-c1cnccc1C(=O)Nc1nnc(OCc2ccc(Cl)c(Cl)c2)s1 [Example 158, N-[5-[(3,4-dichlorophenyl)methoxy]-1,3,4-thiadiazol-2-yl]-3-(2-methoxyphenyl)pyridine-4-carboxamide]"
8,≤ 200,"O=C(Nc1nnc(OCc2ccc(Cl)cc2)s1)c1cnccc1-c1ccccc1OC(F)(F)F [Example 130, N-(5-((4-chlorobenzyl)oxy)-1,3,4-thiadiazol-2-yl)-4-(2-(trifluoromethoxy)phenyl)nicotinamide]"
9,≤ 200,"N#Cc1ccc(OC2COC2)c(-c2cnccc2C(=O)Nc2nnc(OCc3ccc(Cl)cc3)s2)c1 [Example 172, N-(5-((4-chlorobenzyl)oxy)-1,3,4-thiadiazol-2-yl)-3-(5-cyano-2-(oxetan-3-yloxy)phenyl)isonicotinamide]"
10,≤ 200,"COc1ccccc1-c1cc(C#N)ncc1C(=O)Nc1nnc(OCCC2CC2)s1 [Example 154, 6-cyano-N-(5-(2-cyclopropylethoxy)-1,3,4-thiadiazol-2-yl)-4-(2-methoxyphenyl)nicotinamide]"
11,200 to 500,"O=C(Nc1nnc(OCc2ccc(Cl)cn2)s1)c1ccncc1N1CCOC2(CC2)C1 [Example 173, N-[5-[(5-chloropyridin-2-yl)methoxy]-1,3,4-thiadiazol-2-yl]-3-[4-oxa-7-azaspiro[2.5]octan-7-yl]pyridine-4-carboxamide]"
12,≤ 200,"COc1cccc(F)c1-c1cc(C)ncc1C(=O)Nc1nnc(OCc2ccc(Cl)cc2)s1 [Example 183, N-(5-((4-chlorobenzyl)oxy)-1,3,4-thiadiazol-2-yl)-4-(2-fluoro-6-methoxyphenyl)-6-methylnicotinamide]"
13,≤ 200,"COc1cc(C(=O)Nc2nnc(OCc3ccc(Cl)cc3)s2)c(-c2ccccc2OC)cn1 [Example 160, N-(5-((4-chlorobenzyl)oxy)-1,3,4-thiadiazol-2-yl)-2-methoxy-5-(2-methoxyphenyl)isonicotinamide]"
14,≤ 200,"Cc1cc(-c2cccc3c2OCCN3)c(C(=O)Nc2nnc(OCc3ccc(Cl)cn3)s2)cn1 [Example 198, N-(5-((5-chloropyridin-2-yl)methoxy)-1,3,4-thiadiazol-2-yl)-4-(3,4-dihydro-2H-benzo[b][1,4]oxazin-8-yl)-6-methylnicotinamide]"
15,≤ 200,"COc1ccccc1-c1cc(C)ncc1C(=O)Nc1nnc(OCc2cnc(Cl)cn2)s1 [Example 212, N-[5-[(5-chloropyrazin-2-yl)methoxy]-1,3,4-thiadiazol-2-yl]-4-(2-methoxyphenyl)-6-methylpyridine-3-carboxamide]"
16,≤ 200,"COc1cc(F)ccc1-c1ccncc1C(=O)Nc1nnc(OCc2ccc(Cl)cc2)s1 [Example 155, N-[5-[(4-chlorophenyl)methoxy]-1,3,4-thiadiazol-2-yl]-4-(4-fluoro-2-methoxyphenyl)pyridine-3-carboxamide]"

# Second part, the compound before the results:
row,SMILES,IC50 [nM]
1,"COc1ccc(C#N)cc1-c1cc(C)ncc1C(=O)Nc1nnc(OCc2ccc(Cl)cn2)s1 [Example 117, N-[5-[(5-chloropyridin-2-yl)methoxy]-1,3,4-thiadiazol-2-yl]-4-(5-cyano-2-methoxyphenyl)-6-methylpyridine-3-carboxamide]",≤ 200
2,"COc1ncccc1-c1ccncc1C(=O)Nc1nnc(OCc2ccc(Cl)cc2)s1 [Example 129, N-(5-((4-chlorobenzyl)oxy)-1,3,4-thiadiazol-2-yl)-2-methoxy-[3,4′-bipyridine]-3′-carboxamide]",200 to 500
3,"O=C(Nc1nnc(OCc2ccc(Cl)cc2)s1)c1cncn1-c1cccnc1 [Example 17, N-(5-((4-chlorobenzyl)oxy)-1,3,4-thiadiazol-2-yl)-1-(pyridin-3-yl)-1H-imidazole-5-carboxamide]",500 to 1000
4,"O=C(Nc1nnc(OCc2ccc(Cl)cc2)s1)c1cncnc1N1CCOCC1 [Example 13, N-(5-((4-chlorobenzyl)oxy)-1,3,4-thiadiazol-2-yl)-4-morpholinopyrimidine-5-carboxamide]",200 to 500
5,"O=C(Nc1nnc(OCc2ccc(Cl)cc2)s1)c1ccncc1N1C2CCC1COC2 [Example 176, N-[5-[(4-chlorophenyl)methoxy]-1,3,4-thiadiazol-2-yl]-3-[3-oxa-8-azabicyclo[3.2.1]octan-8-yl]pyridine-4-carboxamide]",≤ 200
6,"O=C(Nc1nnc(OCc2ccc(Cl)cc2)s1)c1cncn1-c1ccncc1 [Example 18, N-(5-((4-chlorobenzyl)oxy)-1,3,4-thiadiazol-2-yl)-1-(pyridin-4-yl)-1H-imidazole-5-carboxamide]",500 to 1000
7,"O=C(Nc1nnc(OCc2ccc(Cl)cc2)s1)c1cncn1C1CCOCC1 [Example 55, N-(5-((4-chlorobenzyl)oxy)-1,3,4-thiadiazol-2-yl)-1-(tetrahydro-2H-pyran-4-yl)-1H-imidazole-5-carboxamide]",1000 to 10000
8,"COc1ccc(C#N)cc1-c1cnccc1C(=O)Nc1nnc(OCc2ccc(Cl)cc2)s1 [Example 123, N-(5-((4-chlorobenzyl)oxy)-1,3,4-thiadiazol-2-yl)-3-(5-cyano-2-methoxyphenyl)isonicotinamide]",≤ 200
9,"N#Cc1ccc(C(=O)Nc2nnc(OCc3ccc(Cl)cc3)s2)c(N2CCOCC2)n1 [Example 14, N-(5-((4-chlorobenzyl)oxy)-1,3,4-thiadiazol-2-yl)-6-cyano-2-morpholinonicotinamide]",≤ 200
10,"O=C(Nc1nnc(OCc2ccc(Cl)cc2)s1)c1cccnc1-c1ccc(=O)[nH]c1 [Example 79, N-(5-((4-chlorobenzyl)oxy)-1,3,4-thiadiazol-2-yl)-6′-oxo-1′,6′-dihydro-[2,3′-bipyridine]-3-carboxamide or its tautomer N-(5-((4-chlorobenzyl)oxy)-1,3,4-thiadiazol-2-yl)-6′-hydroxy-[2,3′-bipyridine]-3-carboxamide]",500 to 1000
11,"O=C(Nc1nnc(OCc2ccc(Cl)cc2)s1)c1cccnc1N1CCCOCC1 [Example 6, N-(5-((4-chlorobenzyl)oxy)-1,3,4-thiadiazol-2-yl)-2-(1,4-oxazepan-4-yl)nicotinamide]",200 to 500
12,"O=C(O)c1cc(N2CCOCC2)c(C(=O)Nc2nnc(OCc3ccc(Cl)cc3)s2)cn1 [Example 84, 5-((5-((4-chlorobenzyl)oxy)-1,3,4-thiadiazol-2-yl)carbamoyl)-4-morpholinopicolinic acid]",1000 to 10000
13,"C[C@@H]1COCCN1c1ncccc1C(=O)Nc1nnc(OCc2ccc(Cl)cc2)s1 [Example 9, (R)—N-(5-((4-chlorobenzyl)oxy)-1,3,4-thiadiazol-2-yl)-2-(3-methylmorpholino)nicotinamide]",200 to 500
14,"NC(=O)c1cc(N2CCOCC2)c(C(=O)Nc2nnc(OCc3ccc(Cl)cc3)s2)cn1 [Example 48, N^5-(5-((4-chlorobenzyl)oxy)-1,3,4-thiadiazol-2-yl)-4-morpholinopyridine-2,5-dicarboxamide]",200 to 500
15,"COc1ccccc1-c1cc(C)ncc1C(=O)Nc1nnc(OCc2ccc(Cl)cn2)s1 [Example 113, N-(5-((5-chloropyridin-2-yl)methoxy)-1,3,4-thiadiazol-2-yl)-4-(2-methoxyphenyl)-6-methylnicotinamide]",≤ 200
16,"COc1ccccc1-c1cc(CO)ncc1C(=O)Nc1nnc(OCc2ccc(Cl)cc2)s1 [Example 102, N-(5-((4-chlorobenzyl)oxy)-1,3,4-thiadiazol-2-yl)-6-(hydroxymethyl)-4-(2-methoxyphenyl)nicotinamide]",≤ 200
17,"O=C1CCN(c2ncccc2C(=O)Nc2nnc(OCc3ccc(Cl)cc3)s2)CCN1 [Example 61, N-(5-((4-chlorobenzyl)oxy)-1,3,4-thiadiazol-2-yl)-2-(5-oxo-1,4-diazepan-1-yl)nicotinamide]",500 to 1000
18,"COc1ccccc1-n1cncc1C(=O)Nc1nnc(OCc2ccc(Br)cc2)s1 [Example 86, N-(5-((4-bromobenzyl)oxy)-1,3,4-thiadiazol-2-yl)-1-(2-methoxyphenyl)-1H-imidazole-5-carboxamide]",≤ 200
19,"COc1ccccc1-c1ncccc1C(=O)Nc1nnc(OCc2ccc(Cl)cc2)s1 [Example 67, N-(5-((4-chlorobenzyl)oxy)-1,3,4-thiadiazol-2-yl)-2-(2-methoxyphenyl)nicotinamide]",1000 to 10000
